Measurements as given in the NIST ThermoML archive (doi:10.1016/j.jct.2018.10.007).

Settings: Liquid, Rate of evaporation

CCCCCCC[P+](CCCCCC)(CCCCCC)CCCCCC.O=S(=O)([N-]S(=O)(=O)C(F)(F)F)C(F)(F)F [trihexylheptylphosphonium bis(trifluoromethanesulfonyl)imide]
Settings	vapor or sublimation pressure [kPa]
408.53 K	6.2e-10
410.91 K	8.8e-10
413.56 K	1.1e-09
415.89 K	1.6e-09
418.57 K	2.1e-09
420.85 K	2.8e-09
423.58 K	3.8e-09
425.82 K	4.9e-09
428.58 K	6.7e-09
430.8 K	8.5e-09
433.58 K	1.2e-08
435.79 K	1.5e-08
438.58 K	2e-08
440.78 K	2.5e-08
443.58 K	3.4e-08
445.8 K	4.2e-08
448.56 K	5.8e-08
450.83 K	7e-08
453.59 K	9.5e-08
455.88 K	1.16e-07

CCCCCCC[P+](CCCCCC)(CCCCCC)CCCCCC.F[P-](F)(F)(F)(F)F [trihexylheptylphosphonium hexafluorophosphate]
Settings	vapor or sublimation pressure [kPa]
405.87 K	3.6e-10
408.4 K	4.9e-10
410.8 K	6.7e-10
413.34 K	9e-10
415.74 K	1.2e-09
418.27 K	1.6e-09
420.69 K	2.2e-09
423.22 K	2.8e-09
425.68 K	3.8e-09
428.2 K	4.9e-09
430.66 K	6.5e-09
433.19 K	8.4e-09
435.68 K	1.1e-08
438.21 K	1.5e-08
440.7 K	1.9e-08
443.24 K	2.5e-08
445.74 K	3.1e-08
448.28 K	4.2e-08
450.97 K	5.3e-08
453.32 K	6.9e-08

CCCCCCCCCCCCCC[P+](CCCCCC)(CCCCCC)CCCCCC.O=S(=O)([N-]S(=O)(=O)C(F)(F)F)C(F)(F)F
Settings	vapor or sublimation pressure [kPa]
399.34 K	2.3e-11
404.33 K	4.6e-11
405.52 K	5.3e-11
407.95 K	7.1e-11
408.01 K	7.5e-11
409.24 K	8.6e-11
409.33 K	8.9e-11
410.52 K	1e-10
412.96 K	1.4e-10
413 K	1.5e-10
413.93 K	1.7e-10
414.15 K	1.7e-10
414.24 K	1.7e-10
414.33 K	1.7e-10
415.52 K	2e-10
417.97 K	2.9e-10
418 K	2.7e-10
419.13 K	3.2e-10
419.16 K	3.3e-10
419.24 K	3.1e-10
419.33 K	3.2e-10
420.52 K	3.8e-10
422.97 K	5.4e-10
423.01 K	5.1e-10
423.46 K	5.2e-10
424.17 K	6.4e-10
424.24 K	6.4e-10
424.31 K	6.1e-10
425.53 K	7.3e-10
427.91 K	9.2e-10
427.98 K	1e-09
428.01 K	1e-09
429.18 K	1e-09
429.24 K	1e-09
429.26 K	1.1e-09
430.53 K	1.3e-09
432.25 K	1.5e-09
433 K	1.8e-09
433.02 K	1.7e-09
434.17 K	2e-09
434.2 K	1.9e-09
434.24 K	1.9e-09
435.54 K	2.3e-09
436.8 K	2.6e-09
438.01 K	3.1e-09
438.02 K	3e-09
439.04 K	3.4e-09
439.21 K	3.6e-09
439.23 K	3.4e-09
440.54 K	4e-09
441.79 K	4.6e-09
443.01 K	5.2e-09
443.03 K	5.2e-09
443.88 K	5.8e-09
444.2 K	5.9e-09
444.26 K	6.3e-09
445.56 K	6.9e-09
446.75 K	8e-09
448.02 K	8.9e-09
448.07 K	8.7e-09
449.16 K	1e-08
449.26 K	1e-08
450.57 K	1.2e-08
451.67 K	1.4e-08
453.06 K	1.4e-08
454.09 K	1.7e-08
454.27 K	1.9e-08
456.51 K	2.2e-08
458.95 K	2.8e-08

CCCCCC[P+](CCCCCC)(CCCCCC)CCCCCC.F[P-](F)(F)(F)(F)F [tetrahexylphosphonium hexafluorophosphate]
Settings	vapor or sublimation pressure [kPa]
395.83 K	2e-10
400.74 K	3.8e-10
405.65 K	7e-10
408.42 K	1e-09
410.61 K	1.3e-09
413.37 K	1.9e-09
415.59 K	2.4e-09
418.31 K	3.4e-09
423.24 K	5.9e-09
428.21 K	1e-08
430.65 K	1.4e-08
433.2 K	1.8e-08
435.66 K	2.4e-08
438.23 K	3.1e-08
440.69 K	4e-08
443.24 K	5e-08
445.73 K	6.7e-08
448.28 K	8.5e-08
451.57 K	1.23e-07
453.41 K	1.42e-07
